Source: patent US20060246492A1, “Method for predicting responsiveness to drugs” (The General Hospital Corporation, priority 2005, published 2006)
Entries after “also recorded” stand apart in the source; their conditions may differ.

Experiments:
MET = MET (Homo sapiens, UniProt P08581); conditions: nanomolar concentrations; cited from earlier work
MLP-29 cells = conditions: cited from earlier work
[1] = test system: GTL-16 gastric carcinoma cells; conditions: cited from earlier work
NIH3T3 fibroblasts = conditions: cited from earlier work
MKN45 [2] = assay: Drug-sensitivity screen of 40 human cancer cell lines (DNA staining, 3 days); type: cell-based; conditions: MKN45 gastric cancer cell line
Experimental: (§1) Cells were cultured and analyzed in triplicate within microtiter plates. Cell numbers were quantitated by DNA staining, 3 days after addition of various concentrations of drugs and expressed as a fraction of matched untreated cultures. For each drug concentration, cell lines with relative drug sensitivity (<50% of untreated control growth) are shown in darkest staining, intermediate sensitivity (50-75%) in […], and drug insensitivity (>75%) in intermediate shading.
(§2) Cellular Proliferation and Viability Assays. […] For quantitation of cellular proliferation, cells were fixed at appropriate time points in 4% paraformaldehyde, and all plates were stained simultaneously by using the fluorescent nucleic acid stain SYTO60 (Molecular Probes) at 1:8,000 dilution in PBS. Quantitation was done by measuring the […] at 700 nm by using the Odyssey Imaging System (LI-COR, Lincoln, Nebr.). The relative cell number was obtained by normalizing treated samples to matched untreated specimens. For quantitation of cell viability, cultures were stained after 4 days by using the MTT assay. Briefly, 10 μl of 5 mg/ml MTT (Thiazolyl blue) solution was added to each well and incubated for 2 h at 37° C. For adherent cell lines, the media was removed from each well, and the resultant MTT formazan was solubilized in 100 μl of DMSO. For nonadherent cell lines, the MTT formazan was solubilized by direct addition of 100 μl of acidic isopropanol (0.1 N HCl) to each well. The results were quantitated spectrophotometrically by using a test wavelength of 570 nm and a reference wavelength of 630 nm.

[3] = test system: platelet-derived growth factor receptor; conditions: cited from earlier work
Amp− cells [4] = assay: Viability of gastric cancer cell lines without MET amplification (MTT); type: cell-based, human; conditions: 12 of 12 Amp− gastric cancer cell lines; 96 h
Amp+ cells [5] = assay: Apoptosis induction assay (cleaved caspase-3, PARP cleavage); type: cell-based, human; conditions: 72 h, 1 μM (caspase-3), 500 nM (PARP)
Experimental: (§3) Cells are costained with DAPI to show nuclei.
(§4) Cells were plated on coverslips in 12-well dishes and grown to approximately 75% confluency in 10% serum. […] After 72 h the cells were fixed with 4% paraformaldehyde for 20 minutes. Permeabilization with 1% NP40 for 5 minutes was followed by blocking with 3% BSA for 30 minutes. The coverslips were then incubated overnight at 4° C. with cleaved caspase-3 antibody at 1:200 dilution. The next day, the coverslips were washed 3 times with PBS and incubated with a secondary antibody (goat anti-rabbit FITC-conjugated) for 1 h at 1:250 dilution. Following 5 washes with PBS, coverslips were mounted in Vectashield mounting medium containing DAPI (Vector Laboratories; Burlingame, Calif.).
(§5) Apoptosis Induction Assay. […] After 72 h, cells were fixed with 4% paraformaldehyde for 20 min, permeabilized by using 1% Nonidet P-40 for 5 min, and blocked with 3% BSA for 30 min. The coverslips were then incubated overnight at 4° C. with cleaved caspase-3 antibody at 1:200 dilution. The next day, the coverslips were washed three times with PBS and incubated with a secondary antibody (goat anti-rabbit FITC-conjugated) for 1 h at 1:250 dilution. After five washes with PBS, coverslips were mounted in Vectashield mounting medium containing DAPI (Vector Laboratories), and staining was visualized by fluorescent microscopy.

Amp− cells [6] = assay: as above; type: cell-based, human; conditions: 72 h, identical conditions
Experimental: as §3, §4, §5

Amp+ cells [7] = assay: Growth curve (SYTO60 staining); type: cell-based, human; conditions: 1 μM, up to 6 days
Amp+ cells [8] = assay: Viability of gastric cancer cell lines with MET amplification (MTT); type: cell-based, human; conditions: 5 of 5 Amp+ gastric cancer cell lines; 96 h
[9] = test system: ERK1/2, AKT, STAT3, or FAK in Amp− cells; assay: Immunoblotting of downstream effector phosphorylation; type: cell-based, human; conditions: 3 h
Experimental: (§6) FIG. 3: Constitutive activation of MET and activation of downstream signaling pathways in Amp^+ cells. (FIG. 3A) MET is constitutively activated in the Amp^+ cells. […] (FIG. 3B) Effect of HGF on MET activation in Amp^+ and Amp^− cells (representative immunoblots). Cells were serum-starved for 24 h and treated with 40 ng/ml HGF for 10 minutes. Phosphorylation of MET (Y1234/1235) is unaltered in Amp^+ cells treated with HGF, but it is induced by HGF in Amp^− cells (total MET control).
as §3
(§7) Cells were either directly lysated in 2× sample buffer or in RIPA buffer (150 mM NaCl, 50 mM Tris pH 8.0, 1% NP40, 0.5% DOC, 0.1% SDS, 1 mM EDTA, 10 mM NaF, 1 mM Na-orthovanadate, 1× protease inhibitor cocktail (Roche; Indianapolis, Ind.)). Cell lysates were sonicated for 10 sec and cleared by centrifugation at 14,000 rpm for 10 min at 4° C. Cleared lysates were boiled in sample buffer and loaded onto 10% SDS-PAGE gel. For immunoblotting analysis, proteins were transferred onto Immobilon PVDF membrane (Millipore; Bedford, Mass.) and visualized with Western Lightning Plus chemiluminescence kit (Perkin Elmer; Boston, Mass.).

[10] = test system: ERK1/2, AKT, STAT3, and FAK in Amp+ cells; assay: as above; type: cell-based, human; conditions: 3 h, 50 nM
Experimental: as §6, §3, §7

SNU-5 = assay: MTT viability assay, gastric cancer cell line; type: cell-based; conditions: Homo sapiens, SNU-5, 96 h
Experimental: (§8) Cells were plated in 96-well plate in medium containing 4% fetal bovine serum at approximately 4000 cells/well. […] Cell viability was measured 96 h later using the MTT assay. Briefly, 10 ul of 5 mg/ml MTT (Thiazolyl blue) solution was added to each well and incubated for about 2 hours at 37° C. For adherent cell lines, the media was removed from each well and the resultant MTT formazan was solubilized in 100 ul of DMSO. For suspension cell lines, the MMT formazan was solubilized by direct addition of 100 ul of acidic isopropanol (0.1N HCl) to each well. The results were quantitated spectrophotometrically using a test wavelength of 570 nm and a reference wavelength of 630 nm.
as §2

SNU-16 = assay: MTT viability assay, gastric cancer cell line; type: cell-based; conditions: Homo sapiens, SNU-16, 96 h
Experimental: as §8, §2

SNU-1 = assay: MTT viability assay, gastric cancer cell line; type: cell-based; conditions: Homo sapiens, SNU1, 96 h
Experimental: as §8, §2

TMK-1 = assay: MTT viability assay, gastric cancer cell line; type: cell-based; conditions: Homo sapiens, TMK-1, 96 h
Experimental: as §8, §2

N87 = assay: MTT viability assay, gastric cancer cell line; type: cell-based; conditions: Homo sapiens, 96 h
Experimental: as §8, §2

KATO II = assay: MTT viability assay, gastric cancer cell line; type: cell-based; conditions: Homo sapiens, 96 h
Experimental: as §8, §2

HSC39 = assay: MTT viability assay, gastric cancer cell line; type: cell-based; conditions: Homo sapiens, 96 h
Experimental: as §8, §2

MKN45 [11] = assay: MTT viability assay, gastric cancer cell line; type: cell-based; conditions: Homo sapiens, MKN-45, 96 h
Experimental: as §8, §2

GTL16 = assay: MTT viability assay, gastric cancer cell line; type: cell-based; conditions: Homo sapiens, GTL 16, 96 h
Experimental: as §8, §2

AGS = assay: MTT viability assay, gastric cancer cell line; type: cell-based; conditions: Homo sapiens, 96 h
Experimental: as §8, §2

MKN28 = assay: MTT viability assay, gastric cancer cell line; type: cell-based; conditions: Homo sapiens, MKN-28, 96 h
Experimental: as §8, §2

Hs746T = assay: MTT viability assay, gastric cancer cell line; type: cell-based; conditions: Homo sapiens, 96 h
Experimental: as §8, §2

Hs738T = assay: MTT viability assay, gastric cancer cell line; type: cell-based; conditions: Homo sapiens, 96 h
Experimental: as §8, §2

MKN1 = assay: MTT viability assay, gastric cancer cell line; type: cell-based; conditions: Homo sapiens, MKN-1, 96 h
Experimental: as §8, §2

MKN74 = assay: MTT viability assay, gastric cancer cell line; type: cell-based; conditions: Homo sapiens, MKN-74, 96 h
Experimental: as §8, §2

MKN7 = assay: MTT viability assay, gastric cancer cell line; type: cell-based; conditions: Homo sapiens, MKN-7, 96 h
Experimental: as §8, §2

KATO III = assay: MTT viability assay, gastric cancer cell line; type: cell-based; conditions: Homo sapiens, 96 h
Experimental: as §8, §2

Amp− cells [12] = assay: Growth curve (SYTO60 staining); type: cell-based, human; conditions: 1 μM, up to 6 days
[13] = test system: MET autophosphorylation (Y1234/1235) in Amp+ cells; assay: Immunoblotting of MET autophosphorylation; type: cell-based, human; conditions: 3 h, 50 nM
NCI-H1975 = assay: Drug-sensitivity screen of 40 human cancer cell lines (DNA staining, 3 days); type: cell-based; conditions: NCI-H1975 (EGFR L858R and T790M)
Experimental: as §1, §2

NCI-H1650 = assay: as above; type: cell-based; conditions: NCI-H1650 (EGFR del E746-A750), tested 100 nM to 10 μM
Experimental: as §1, §2

MET, sequence (P08581 25-1390): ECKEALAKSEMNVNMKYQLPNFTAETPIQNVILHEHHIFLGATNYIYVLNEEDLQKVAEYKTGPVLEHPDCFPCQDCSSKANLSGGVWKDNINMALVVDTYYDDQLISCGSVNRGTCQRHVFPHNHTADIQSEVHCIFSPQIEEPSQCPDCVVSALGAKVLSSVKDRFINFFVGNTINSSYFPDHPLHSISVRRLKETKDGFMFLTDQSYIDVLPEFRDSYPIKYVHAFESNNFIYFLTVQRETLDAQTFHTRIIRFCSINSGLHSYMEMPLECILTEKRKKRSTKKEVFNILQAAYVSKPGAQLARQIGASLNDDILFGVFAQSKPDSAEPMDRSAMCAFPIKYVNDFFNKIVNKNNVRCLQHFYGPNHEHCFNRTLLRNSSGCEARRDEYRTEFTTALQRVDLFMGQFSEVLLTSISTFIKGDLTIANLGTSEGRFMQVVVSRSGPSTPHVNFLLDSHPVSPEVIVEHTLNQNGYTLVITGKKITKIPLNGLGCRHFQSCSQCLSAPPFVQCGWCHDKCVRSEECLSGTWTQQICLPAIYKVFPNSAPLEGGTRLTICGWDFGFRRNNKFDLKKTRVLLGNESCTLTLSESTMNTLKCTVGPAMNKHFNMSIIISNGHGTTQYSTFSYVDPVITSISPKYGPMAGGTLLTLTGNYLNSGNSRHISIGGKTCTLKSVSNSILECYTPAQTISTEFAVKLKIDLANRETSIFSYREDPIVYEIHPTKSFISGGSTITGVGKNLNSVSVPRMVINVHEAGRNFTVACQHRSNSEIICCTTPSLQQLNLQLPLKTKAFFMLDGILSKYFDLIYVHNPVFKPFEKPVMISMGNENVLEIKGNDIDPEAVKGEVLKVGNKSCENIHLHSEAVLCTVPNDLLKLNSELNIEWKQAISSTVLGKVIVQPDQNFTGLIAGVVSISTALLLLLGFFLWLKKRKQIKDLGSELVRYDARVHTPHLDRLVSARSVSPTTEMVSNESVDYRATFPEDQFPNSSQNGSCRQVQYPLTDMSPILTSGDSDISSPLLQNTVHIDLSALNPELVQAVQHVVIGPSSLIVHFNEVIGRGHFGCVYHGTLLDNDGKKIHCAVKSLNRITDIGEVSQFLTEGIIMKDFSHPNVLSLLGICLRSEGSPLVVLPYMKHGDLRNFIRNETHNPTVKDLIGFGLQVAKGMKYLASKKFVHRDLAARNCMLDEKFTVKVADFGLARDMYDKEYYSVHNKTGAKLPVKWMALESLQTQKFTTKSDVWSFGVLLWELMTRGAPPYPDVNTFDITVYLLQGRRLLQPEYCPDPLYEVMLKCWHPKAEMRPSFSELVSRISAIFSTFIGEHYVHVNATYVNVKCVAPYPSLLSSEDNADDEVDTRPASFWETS

SMILES: COC(=O)[C@@]1(O)C[C@H]2O[C@]1(C)n1c3ccccc3c3c4c(c5c6ccccc6n2c5c31)C(=O)NC4 [K252a]
- Met autophosphorylation (MET): inhibits Met autophosphorylation
- HGF-mediated scattering (MLP-29 cells): prevents HGF-mediated scattering
- Met-driven proliferation [1]: reduces Met-driven proliferation
- Met mediated transformation (NIH3T3 fibroblasts): reverses Met mediated transformation

SMILES: Cc1[nH]c(/C=C2\C(=O)Nc3ccc(S(=O)(=O)Cc4c(Cl)cccc4Cl)cc32)c(C)c1C(=O)N1CCC[C@@H]1CN1CCCC1 [PHA-665752, (3Z)-5-[(2,6-dichlorobenzyl)sulfonyl]-3-[(3,5-dimethyl-4-{[(2R)-2-(pyrrolidin-1-ylmethyl)pyrrolidin-1-yl]carbonyl}-1H-pyrrol-2-yl)methylene]-1,3-dihydro-2H-indol-2-one]
- Extreme sensitivity (drug concentration) (MKN45 [2]): 100 nM
- IC50 [3]: > 10 µM
- effect on number of viable cells / proliferation (Amp− cells [4]): resistant; also recorded: no effect
- induction of apoptosis (Amp+ cells [5]): induction of apoptosis; also recorded: demonstrated apoptosis
- induction of apoptosis (Amp− cells [6]): not in Amp− cells
- effect on proliferation as a function of time (Amp+ cells [7]): initial arrest in proliferation, followed by cell death
- effect on number of viable cells (Amp+ cells [8]): dramatic decrease in the number of viable cells; also recorded: dramatic reduction in cell numbers
- baseline phosphorylation of ERK1/2, AKT, STAT3, FAK [9]: no effect on baseline phosphorylation
- baseline phosphorylation of downstream effectors ERK1/2, AKT, STAT3, FAK [10]: effectively abrogated the baseline phosphorylation
- viability at 0.5 µM (SNU-5): 4 ± 0.2%
- viability at 0.5 µM (SNU-16): 99.9 ± 1.5%
- viability at 0.5 µM (SNU-1): 101 ± 3.2%
- viability at 0.5 µM (TMK-1): 91.3 ± 2.1%
- viability at 0.5 µM (N87): 86 ± 7.4%
- viability at 0.5 µM (KATO II): 3.2 ± 0.3%
- viability at 0.5 µM (HSC39): 92.8 ± 2.1%
- viability at 0.5 µM (MKN45 [11]): 5.8 ± 0.5%
- viability at 0.5 µM (GTL16): 12.8 ± 1.2%
- viability at 0.5 µM (AGS): 99.8 ± 1.9%
- viability at 0.5 µM (MKN28): 104 ± 4.2%
- viability at 0.5 µM (Hs746T): 38.4 ± 1.2%
- viability at 0.5 µM (Hs738T): 100 ± 12.3%
- viability at 0.5 µM (MKN1): 87.5 ± 4%
- viability at 0.5 µM (MKN74): 89.6 ± 2.6%
- viability at 0.5 µM (MKN7): 118 ± 21.1%
- viability at 0.5 µM (KATO III): 105 ± 9.5%
- effect on proliferation rate as a function of time (Amp− cells [12]): unaffected
- constitutive MET autophosphorylation [13]: effectively suppressed the constitutive MET autophosphorylation

SMILES: COc1cc2ncnc(Nc3ccc(F)c(Cl)c3)c2cc1OCCCN1CCOCC1 [gefitinib]
- drug sensitivity (NCI-H1975): relatively resistant
- Extreme sensitivity (drug concentration) (NCI-H1650): 100 nM
